Laboratory results taken from patent publication US20050048596A1, “Assay for detecting changes in mitochondrial membrane permeability and method of using same” (priority 2003, published 2005).

Tests used:
MPT pore [1] = experiment: Enzymatic assay (ADH/NADH oxidase/HRP/Amplex Red) of calcium-induced pyridine nucleotide release from isolated liver mitochondria, Resorufin fluorescence; format: biochemical, rat; settings: BA 20 μM; calcium 100 μM; isolated liver mitochondria 0.125 mg/ml protein; FIG. 5
Description: FIG. 5 illustrates the recording of fluorescence intensity following calcium additions to isolated liver mitochondria in the assay mixture. Controls; only calcium (100 μM) was added. BA; the same amount of calcium (100 μM) was added to mitochondria incubated in the presence of 20 μM Bongrekig acid.
In one preferred embodiment, the assay for pyridine nucleotides measurement may comprise several enzymatic reactions—cyclic and/or coupled—which use oxidized or reduced form of nicotinamide adenine dinucleotides (NAD^+, NADH, respectively) as substrate, thereby providing a detectable final product (FIG. 1). In the first step shown in FIG. 1, alcohol dehydrogenase (ADH) converts ethanol to acetaldehyde in the presence of NAD^+, which is released from mitochondria and reduced to NADH. In the next reaction NADH oxidase (Ox) oxidizes NADH back to NAD^+, and hydrogen peroxide (H2O2) is produced from water in the process. In the last reaction, horseradish peroxidase (HRP) produces a detectable signal in the presence of hydrogen peroxide. […]
Experiments with isolated liver mitochondria were carried out in the same medium as those without; however, no substrate was added, since respiring mitochondria produce superoxide (O2^−). […] Leakage of H2O2 into the medium is expected to give a increase in fluorescence intensity which is not due to the release of pyridine nucleotides from mitochondria. […]

MPT pore [2] = experiment: Calcium-induced swelling of isolated liver mitochondria, light scattering at 540 nm; format: biochemical, rat; settings: BA 20 μM; calcium 100 μM; no enzymes in medium; FIG. 6
From the text: FIG. 6 illustrates calcium-induced swelling of mitochondria isolated from whole liver. The swelling is detected by recording the light scattering of mitochondrial suspension at 540 nm. Experimental conditions are the same as described in FIG. 5, except no enzymes were present in the medium.
The opening of the MPT pore leads to osmotic swelling of mitochondria, which can be detected as decreased light scattering. […] However, a more significant and progressive decrease in light scattering starting at about 300 sec. following the initial calcium pulse occurred.
Male Wistar rats weighing about 300 g were used for isolation of rat liver mitochondria. For examination of calcium-induced release of NAD^+, 0.125 mg/ml of mitochondrial protein were used. The mitochondria were incubated in 2ml of the reaction buffer containing all compounds required for the assay.

**Q.** For `CO[C@H](C/C=C\C=C\CC/C=C/C[C@H](C)/C=C/C(=C\C(=O)O)CC(=O)O)/C(C)=C\C=C(/C)C(=O)O` [BA, Bongkrekic acid], which “increase in fluorescence following calcium addition (release of pyridine nucleotides)” value (MPT pore [1]) is on record?
**A.** The value was “blocked”.

**Q.** What about the “calcium-induced swelling of mitochondria (decrease in light scattering at 540 nm)” value (MPT pore [2]) of the same compound?
**A.** The value was “inhibited”.
